Consider two molecules from publication PMC10821064, “Mode of Antibacterial Action of Tomatidine C3-Diastereoisomers” (Molecules, 2024).

In this test the target is T1, ATP synthase subunit c (Escherichia coli, UniProt P68699).
T1 construct: gene atpE; native ATP synthase in membrane vesicles of E. coli ATCC 25922; with whole ATP synthase complex
The test is described as follows: inhibition of NADH-driven ATP synthesis in E. coli membrane vesicles, luminescence (ATPlite), Dixon-type Ki. Format: biochemical. The settings on record: read-out: Ki (μM) In Vitro. (In general: Cellular ATP, detected with luciferase, serves as a proxy for viable cell number.)

Each structure is given as a SMILES string.

T1 sequence (P68699 whole entry): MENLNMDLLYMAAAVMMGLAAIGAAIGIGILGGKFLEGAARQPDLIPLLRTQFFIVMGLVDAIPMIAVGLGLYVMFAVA

With `C[C@H]1CCC2(NC1)O[C@H]1C[C@H]3[C@@H]4CCC5C[C@H](NCCN)CC[C@]5(C)[C@H]4CC[C@]3(C)[C@H]1[C@@H]2C` (some centres unmarked) [TM-03], the Ki turned out to be 3.5 µM.

`C[C@H]1CCC2(NC1)O[C@H]1C[C@H]3[C@@H]4CCC5C[C@@H](NCCN)CC[C@]5(C)[C@H]4CC[C@]3(C)[C@H]1[C@@H]2C` (some centres unmarked) [TM-02]: the Ki came out at 1.1 µM.

By Ki is commonly meant the dissociation constant of the complex between target and ligand, obtained from inhibition or displacement.
